Assays:
[1] = target: Delta-type opioid receptor (Rattus norvegicus, UniProt P33533); assay: Displacement of [3H]diprenorphine from rat DOR expressed in rat C6 cells after 1 hr by liquid scintillation counting analysis
Mu-type opioid receptor [2] = target: T1, Mu-type opioid receptor (Rattus norvegicus, UniProt P33535); assay: Displacement of [3H]diprenorphine from rat MOR expressed in rat C6 cells after 1 hr by liquid scintillation counting analysis
Mu-type opioid receptor [3] = target: T1, Mu-type opioid receptor; assay: Agonist activity at rat MOR expressed in rat C6 cells assessed as stimulation of [35S]GTPgammaS binding after 1 hr by liquid scintillation counting analysis

T1 sequence (P33535 whole entry): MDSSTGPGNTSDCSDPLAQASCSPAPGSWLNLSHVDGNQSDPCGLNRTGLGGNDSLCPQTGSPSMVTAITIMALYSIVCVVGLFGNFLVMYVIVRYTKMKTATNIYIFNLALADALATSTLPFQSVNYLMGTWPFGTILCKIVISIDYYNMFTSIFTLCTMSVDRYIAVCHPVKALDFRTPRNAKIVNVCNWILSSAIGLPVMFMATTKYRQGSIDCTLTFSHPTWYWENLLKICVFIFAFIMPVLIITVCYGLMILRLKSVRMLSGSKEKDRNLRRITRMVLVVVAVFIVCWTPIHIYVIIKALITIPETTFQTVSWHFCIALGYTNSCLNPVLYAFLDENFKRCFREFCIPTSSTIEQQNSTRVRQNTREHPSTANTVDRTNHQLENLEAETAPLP
Delta-type opioid receptor, sequence (P33533 whole entry): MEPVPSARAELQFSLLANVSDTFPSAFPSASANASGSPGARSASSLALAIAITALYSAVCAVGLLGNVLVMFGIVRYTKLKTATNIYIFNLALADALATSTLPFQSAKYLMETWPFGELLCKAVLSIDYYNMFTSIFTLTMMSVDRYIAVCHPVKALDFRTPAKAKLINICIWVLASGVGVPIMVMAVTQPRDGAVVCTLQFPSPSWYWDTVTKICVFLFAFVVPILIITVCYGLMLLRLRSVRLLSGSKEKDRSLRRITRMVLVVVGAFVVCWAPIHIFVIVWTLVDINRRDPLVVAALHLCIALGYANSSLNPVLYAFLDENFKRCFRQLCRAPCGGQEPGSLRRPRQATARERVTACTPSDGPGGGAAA

SMILES | Ki [1] [nM] | Ki (Mu-type opioid receptor [2]) [nM] | EC50 (Mu-type opioid receptor [3]) [nM]
Cc1cc(O)cc(C)c1C[C@H](N)C(=O)N[C@@H]1CCNc2ccc(CCc3ccccc3)cc21 | 8.9 | 0.24 | 1.1
Cc1cc(O)cc(C)c1C[C@H](N)C(=O)N[C@H]1CCNc2ccc(CCc3ccccc3)cc21 | 120 | 16 | –

Source: BindingDB's records for doi:10.1021/jm400050y (University of Michigan, 2013)
